Test results taken from ChEMBL document CHEMBL5325499, “Rational Design and Development of Selective BRD7 Bromodomain Inhibitors and Their Activity in Prostate Cancer” (J Med Chem, 2023).
Calls of active or inactive are those of the source. The rule behind the calls is not given here.

Experiments:
[1] = molecular target: T1, Bromodomain-containing protein 7 (Homo sapiens, UniProt Q9NPI1); assay: Displacement of NanoBRET BRD Tracer-02 from Nanoluc-fused BRD7 bromodomain (unknown origin) expressed in HEK293T cells incubated for 2 hrs by NanoBRET assay; format: cell-based
T1 sequence (Q9NPI1 whole entry): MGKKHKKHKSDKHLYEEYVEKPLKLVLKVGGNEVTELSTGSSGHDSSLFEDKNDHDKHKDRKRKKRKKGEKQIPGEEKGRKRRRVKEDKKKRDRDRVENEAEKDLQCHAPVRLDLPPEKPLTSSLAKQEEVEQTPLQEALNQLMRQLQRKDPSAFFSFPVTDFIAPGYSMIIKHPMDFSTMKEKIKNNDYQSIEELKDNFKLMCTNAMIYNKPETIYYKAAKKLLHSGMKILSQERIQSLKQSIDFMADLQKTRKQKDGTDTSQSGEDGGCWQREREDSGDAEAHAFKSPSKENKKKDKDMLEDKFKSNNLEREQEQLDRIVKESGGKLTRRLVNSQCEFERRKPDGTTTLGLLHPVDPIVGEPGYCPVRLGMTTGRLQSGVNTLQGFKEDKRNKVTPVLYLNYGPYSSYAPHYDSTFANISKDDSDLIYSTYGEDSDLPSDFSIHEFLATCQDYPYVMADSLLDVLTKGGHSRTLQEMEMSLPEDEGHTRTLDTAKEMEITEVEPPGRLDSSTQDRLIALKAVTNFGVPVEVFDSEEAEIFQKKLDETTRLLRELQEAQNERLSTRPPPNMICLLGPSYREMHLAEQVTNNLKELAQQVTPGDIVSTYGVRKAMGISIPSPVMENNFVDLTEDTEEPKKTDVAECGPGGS

[2] = molecular target: T2, Bromodomain-containing protein 9 (Homo sapiens, UniProt Q9H8M2); assay: Displacement of NanoBRET BRD Tracer-02 from Nanoluc-fused BRD9 bromodomain (unknown origin) expressed in HEK293T cells incubated for 2 hrs by NanoBRET assay; format: cell-based
T2 sequence (Q9H8M2 whole entry): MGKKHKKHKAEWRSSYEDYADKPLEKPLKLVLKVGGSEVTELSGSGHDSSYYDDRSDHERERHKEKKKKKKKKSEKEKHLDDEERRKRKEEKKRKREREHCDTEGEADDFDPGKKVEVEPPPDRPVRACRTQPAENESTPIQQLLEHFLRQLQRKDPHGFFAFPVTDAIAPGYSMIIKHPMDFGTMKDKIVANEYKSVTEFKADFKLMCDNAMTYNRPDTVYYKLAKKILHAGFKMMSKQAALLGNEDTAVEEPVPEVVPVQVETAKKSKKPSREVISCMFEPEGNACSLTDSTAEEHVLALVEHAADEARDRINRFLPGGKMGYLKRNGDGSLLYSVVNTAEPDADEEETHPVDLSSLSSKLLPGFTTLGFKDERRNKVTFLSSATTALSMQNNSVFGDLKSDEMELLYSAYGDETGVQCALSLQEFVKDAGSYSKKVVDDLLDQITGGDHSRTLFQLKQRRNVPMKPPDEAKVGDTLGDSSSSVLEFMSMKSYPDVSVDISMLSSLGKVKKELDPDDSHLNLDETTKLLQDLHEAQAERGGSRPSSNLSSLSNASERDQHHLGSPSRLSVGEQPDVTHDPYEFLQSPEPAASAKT

[3] = species: Homo sapiens; assay: Binding affinity to His TEV-tagged human recombinant BRPF1B expressed in Escherichia coli BL21(DE3) assessed as protein stabilization by measuring increase in melting temperature at 1 uM measured for 120 mins by differential scanning fluorimetry
[4] = molecular target: T3, Bromodomain-containing protein 9 (Homo sapiens) (UniProt Q9H8M2); assay: Inhibition of BRD9 binding to chromatin in HEK293T cells at 10 uM incubated for 24 hrs by immunoblot analysis; format: cell-based
T3 sequence (whole entry): T2 sequence (Q9H8M2 whole entry)

[5] = test system: CWR22R; assay: Antiproliferative activity against human 22Rv1 cells transfected with empty vector assessed as inhibition of cell growth at 2.5 uM measured after 4 days by CellTiter-Glo luminescent assay; format: functional; set-up: scale not given: the % may be the effect or the level left; details: time 4 day
[6] = Selectivity ratio of IC50 for antiproliferative activity against human AR-negative PC-3 cells to IC50 for antiproliferative activity against human AR-positive LNCaP cells; format: functional
[7] = Selectivity ratio of IC50 for antiproliferative activity against human AR-negative PC-3 cells to IC50 for antiproliferative activity against human AR-positive C-42 cells; format: functional
[8] = molecular target: T1, Bromodomain-containing protein 7; assay: Binding affinity to N-terminal His TEV-tagged human recombinant BRD7 bromodomain expressed in Escherichia coli BL21(DE3) by microscale thermophoresis assay
[9] = molecular target: T1, Bromodomain-containing protein 7; assay: Binding affinity to human partial length BRD7 bromodomain (125 to 254 residues) expressed in mammalian expression system by BROMOscan KdELECT analysis
[10] = species: Homo sapiens; assay: Binding affinity to His TEV-tagged human recombinant BRPF1B expressed in Escherichia coli BL21(DE3) assessed as protein stabilization by measuring increase in melting temperature at 25 uM measured for 120 mins by differential scanning fluorimetry
[11] = test system: PC-3; assay: Antiproliferative activity against AR-negative human PC-3 cells assessed as inhibition of cell growth at 5 uM incubated for 4 days by CellTiter-Glo luminescent assay; format: functional, cell-based; details: time 4.0 day
[12] = molecular target: T2, Bromodomain-containing protein 9; assay: Displacement of FAM-labeled BI-FAMb from N-terminal His TEV-tagged human recombinant BRD9 bromodomain expressed in Escherichia coli BL21(DE3) by competitive fluorescence polarization assay
[13] = molecular target: T1, Bromodomain-containing protein 7; assay: Displacement of FAM-labeled BI-FAMb from N-terminal His TEV-tagged human recombinant BRD7 bromodomain expressed in Escherichia coli BL21(DE3) by competitive fluorescence polarization assay
[14] = molecular target: T2, Bromodomain-containing protein 9; assay: Binding affinity to human partial length BRD9 bromodomain (130 to 259 residues) expressed in bacterial expression system by BROMOscan KdELECT analysis
[15] = cells; details: Homo sapiens, HEK-293T, 2 h
Description: Displacement of NanoBRET BRD Tracer-02 from Nanoluc-fused BRPF1B bromodomain (unknown origin) expressed in HEK293T cells incubated for 2 hrs by NanoBRET assay

[16] = molecular target: T4, Bromodomain-containing protein 7 (Homo sapiens) (UniProt Q9NPI1); assay: Inhibition of human partial length BRD7 bromodomain (125 to 254 residues) expressed in mammalian expression system at 2 uM by BROMOscan analysis
T4 sequence (whole entry): T1 sequence (Q9NPI1 whole entry)

[17] = test system: CWR22R; assay: Antiproliferative activity against human 22Rv1 cells transfected with empty vector assessed as inhibition of cell growth at 5 uM measured after 4 days by CellTiter-Glo luminescent assay; format: functional; set-up: scale not given: the % may be the effect or the level left; details: time 4 day
[18] = molecular target: T3, Bromodomain-containing protein 9 (Homo sapiens); assay: Binding affinity to N-terminal His TEV-tagged human recombinant BRD9 bromodomain expressed in Escherichia coli BL21(DE3) by microscale thermophoresis assay
[19] = molecular target: T3, Bromodomain-containing protein 9 (Homo sapiens); assay: Inhibition of human partial length BRD9 bromodomain (130 to 259 residues) expressed in bacterial expression system at 2 uM by BROMOscan analysis
[20] = test system: CWR22R; assay: Antiproliferative activity against human 22Rv1 cells transfected with shBRD7-2 assessed as inhibition of cell growth at 5 uM measured after 4 days by CellTiter-Glo luminescent assay; format: functional; set-up: scale not given: the % may be the effect or the level left; details: time 4 day
[21] = test system: LNCaP; assay: Antiproliferative activity against AR-positive human LNCaP cells assessed as inhibition of cell growth at 1 uM measured after 4 days by CellTiter-Glo luminescent assay; format: functional, cell-based; details: time 4.0 day
[22] = test system: PC-3; assay: Antiproliferative activity against AR-negative human PC-3 cells assessed as inhibition of cell growth at 1 uM measured after 4 days by CellTiter-Glo luminescent assay; format: functional, cell-based; details: time 4.0 day
[23] = test system: CWR22R; assay: Antiproliferative activity against human 22Rv1 cells transfected with shBRD7-2 assessed as inhibition of cell growth at 2.5 uM measured after 4 days by CellTiter-Glo luminescent assay; format: functional; set-up: scale not given: the % may be the effect or the level left; details: time 4 day
[24] = test system: CWR22R; assay: Antiproliferative activity against human 22Rv1 cells transfected with shBRD7-1 assessed as inhibition of cell growth at 2.5 uM measured after 4 days by CellTiter-Glo luminescent assay; format: functional; set-up: scale not given: the % may be the effect or the level left; details: time 4 day
[25] = test system: CWR22R; assay: Antiproliferative activity against human 22Rv1 cells transfected with shBRD7-1 assessed as inhibition of cell growth at 5 uM measured after 4 days by CellTiter-Glo luminescent assay; format: functional; set-up: scale not given: the % may be the effect or the level left; details: time 4 day

SMILES | inhibition [4] | IC50 ([1]; read-out: IC50) | IC50 ([2]; read-out: IC50) | Kd [8] | Kd [9] | IC50 [12] | Ki [12] | IC50 [13] | Ki [13] | Kd [14] | IC50 [15] | inhibition [16] | Activity [18] | inhibition [19] | Activity [5] | Ratio IC50 [6] | Ratio IC50 [7] | Activity [11] | Activity [17] | further results
COc1ccccc1C(=O)Nc1cc2c(cc1N1CCCCC1)n(C)c(=O)n2C | – | – | – | – | – | – | – | – | – | – | – | – | – | – | – | – | – | – | – | IC50 ([1]; hek293t): Not Active; IC50 ([2]; hek293t): Not Active; Activity [3]: Active
COc1ccc(-c2ccc3c(C)cc(=O)n(C)c3c2)c(C)n1 | inactive | 850 nM | 3.3 µM | 1200 nM | 290 nM | 2700 nM | 230 nM | 1.6 µM | 170 nM | 650 nM | 2800 nM | Active | inactive | inactive | 26% | 3 | 3 | Active | 52% | Activity [10]: Active
Cc1cc(C)cc(-c2cn(C)c(=O)c3ccccc23)c1 | – | – | – | – | – | 4000 nM | 340 nM | 8.1 µM | 860 nM | – | – | – | – | – | – | – | – | – | – | –
COc1ccc(-c2ccc3c(C)cc(=O)n(C)c3c2)c(OC)n1 | inactive | 1100 nM | 3.2 µM | 2200 nM | 340 nM | > 300000 nM | > 20000 nM | 5.4 µM | 1300 nM | 655 nM | > 10000 nM | Active | inactive | inactive | 41% | 3 | 3 | Active | 73% | Activity [20]: 38%; Activity [21]: Active; Activity [22]: inactive; Activity [23]: 22%; Activity [24]: 13%; Activity [25]: 28%

Further lines, with some results ahead:

inhibition [4] | IC50 ([1]; read-out: IC50) | IC50 ([2]; read-out: IC50) | Kd [8] | Kd [9] | IC50 [12] | Ki [12] | IC50 [13] | Ki [13] | Kd [14] | IC50 [15] | inhibition [16] | Activity [18] | inhibition [19] | SMILES | Activity [5] | Ratio IC50 [6] | Ratio IC50 [7] | Activity [11] | Activity [17] | further results
Active | – | – | – | – | – | – | – | – | – | – | – | – | – | CCn1cc(-c2cccc(C(F)(F)F)c2)c2sc(C(=N)NC3CCS(=O)(=O)CC3)cc2c1=O | – | – | – | – | – | –
– | – | – | – | – | 1500 nM | 130 nM | 2.9 µM | 310 nM | – | – | – | – | – | COc1ccc(-c2cn(C)c(=O)c3ccccc23)c(OC)n1 | – | – | – | – | – | –
